The test system of assay [1] is AdVhAFP/DC immunized murine splenocytes. Put plainly: IFNg ELISPOT restimulation of AdVhAFP/DC immunized murine splenocytes with HPLC fractions eluted from HepG2 or Hep3B. The settings on record: HPLC fractions from Hep3B elution. Type of assay: cell-based. How it is done: To elute peptides, HepG2 and Hep3B cells were washed three times with PBS before being incubated with 5 ml of citrate-phosphate buffer at pH 3.2 for 1 minute. The suspension was centrifuged (800×g for 5 minutes) and a total of 500 ml of cell-free supernatant was collected for each cell line. The materials were lyophilized to dryness and stored at −20° C.
Lyophilized materials were redissolved in 30 ml of water/acetonitrile/triflouroacetic acid (W/A/TFA, 95/5/0.1 all by vol.). This solution was pumped onto an analytical reverse phase HPLC column (Keystone Scientific C18 Betasil, 250 mm×2 mm, […] particle size, 100 Å pore size) equilibrated in W/A/TFA, at a flow rate of 0.2 ml/min. The column was eluted using an increasing linear gradient of 0.1% TFA in acetonitrile (time/%acetonitrile=0/5, 5/5, 55/100, 60/100). Column eluate absorbance was monitored at 215 and 280 nm and 1 minute fractions were collected. The retention times of the synthetic peptides with amino acid sequences corresponding to the immunostimulatory peptides were obtained using the same separation gradient on a separate column.
To confirm the presence of dominant peptides in these fractions immunologically, […] of each HPLC fraction from either HepG2 or Hep3B cells was used to restimulate AdVhAFP/DC immunized murine splenocytes in an ELISPOT assay. 200–250 spots/10^6 cells were observed from fractions containing dominant peptides, where 100–130 spots/10^6 cells were observed from the other fractions, and a maximum of 50 spots/10^6 cells were observed from Hep3B fractions. This further supports the mass spectrometry identification of the dominant peptides.

Assay [2] has as its system AFP positive/A2.1+ hepatocellular carcinoma. The assay is described as follows: immunization of hepatocellular carcinoma patients with the four peptides in Montanide ISA-51, peripheral T cell responses by ELISPOT and tetramer. The settings on record: for in vivo T cell responses: patient AFP-A1, 100 μg each peptide, after the second and third immunization; for T cell responses by tetramer and ELISPOT: patient AFP-A2, following two immunizations. The class given is in vivo, human. How it is done: The method and compositions of the present invention were used to treat several patients with AFP positive/A2.1+ hepatocellular carcinoma. Each of the patients were immunized with the four peptides hAFP137-145, residues 137–145 of SEQ ID NO:2; hAFP158-166, residues 158–166 of SEQ ID NO:2; hAFP325-334, residues 325–334 of SEQ ID NO:2; and hAFP542-550, residues 542–550 of SEQ ID NO:2, according to the this method. The peptides were emulsified in 0.5 ml of Montanide™ ISA-51 and combined for a total of 2 ml. The emulsified peptides were divided into four equal doses and each dose was administered in a separate site. Peripheral T cell responses are measured by ELISPOT and tetramer assays.
(§1) They were administered three immunizations of 100 μg each of the four peptides in Montanide™ ISA at two week intervals. Parallel in vitro PBMC cultures were also established from the first patient's blood before immunization and repetitively pulsed with each peptide. […] The presence of AFP542-specific T cells could not be assessed by tetramer as an AFP542 peptide tetramer could not be folded by the facility where these reagents are prepared.
The second patient, designated AFP-A2 was a person with a history of ethanol-induced liver cirrhosis, who was negative for both Hepatitis B and C. […] Their AFP level at presentation was 10,400 ng/ml. […] Seven months after presentation, they were then begun on a combination of the four peptides hAFP137-145, residues 137–145 of SEQ ID NO:2; hAFP158-166, residues 158–166 of SEQ ID NO:2; hAFP325-334, residues 325–334 of SEQ ID NO:2; and hAFP542-550, residues 542–550 of SEQ ID NO:2 using the protocol according to the present invention. They received two immunizations two weeks apart.

For the next assay, the system named is PBMC cultures. The assay is described as follows: parallel in vitro PBMC cultures of patient AFP-A1 repetitively pulsed with each peptide. The class given is cell-based, human. The settings on record: patient AFP-A1, day 28 cultures. The procedure: as §1

On to “FMNKFIYEI (listed as Homo sapiens) [hAFP158-166, dominant HLA-A*0201 peptide derived from human alpha fetoprotein]”, for which, in assay [1], the “Immunologically Reactive Fractions (IFNg ELISPOT) Hep3B” value (shortened to “Immunologically Reactive Fractions”) is on record as 0. In addition, in assay [2], the “in vivo T cell responses” value is “clear recognition”; the “T cell responses by tetramer and ELISPOT” value is “T cell responses were detected”.
Turning to “GLSPNLNRFL (listed as Homo sapiens) [hAFP325-334, dominant HLA-A*0201 peptide derived from human alpha fetoprotein]”, the “Immunologically Reactive Fractions” value in assay [1] was determined as 0. In addition, the “in vitro recognition by tetramer” value with PBMC cultures is “clear in vitro recognition”. In assay [2], the “in vivo T cell responses” value is reported as “trend towards recognition”; the “T cell responses by tetramer and ELISPOT” value is recorded as “T cell responses were detected”.
With “GVALQTMKQ (listed as Homo sapiens) [hAFP542-550, dominant HLA-A*0201 peptide derived from human alpha fetoprotein]”, in assay [1], the “Immunologically Reactive Fractions” value is 0. In addition, in assay [2], the “in vivo T cell responses” value is reported as “clear recognition”; the “T cell responses by tetramer and ELISPOT” value is reported as “T cell responses were detected”.
Regarding “PLFQVPEPV (listed as Homo sapiens) [hAFP137-145, dominant HLA-A*0201 peptide derived from human alpha fetoprotein]”, the “Immunologically Reactive Fractions” value in assay [1] turned out to be 0. In addition, the “in vitro recognition by tetramer” value with PBMC cultures was “clear in vitro recognition”. Moreover, in assay [2], the “in vivo T cell responses” value was “clear recognition”; the “T cell responses by tetramer and ELISPOT” value is listed as “T cell responses were detected”.
